Tested on: A2780
Test: Antiproliferative activity against human A2780 cells
Format: cell-based

Row | IC50 [µM] | SMILES
1 | 8.1 | CC(C)=CCc1c(O)c(O)cc2oc3c4c(cc(O)c3c(=O)c12)OC(C)(C)C=C4
2 | 40.6 | CC(C)=CCc1c(O)ccc2oc3c(O)c4c(c(O)c3c(=O)c12)C=CC(C)(C)O4 [TERMICALCICOLANONE A]

From ChEMBL document CHEMBL1142112, “Antiproliferative xanthones of Terminalia calcicola from the Madagascar rain forest” (J Nat Prod, 2007)
